Measured values as given in patent US8673903B2, “Substituted 8-alkoxy-2-aminotetralin derivatives, and use thereof” (Bayer Intellectual Property GmbH, priority 2010, dated 2014).

Legend:
[1] = target: T1, soluble guanylate cyclase (sGC), recombinant guanylate cyclase reporter cell line (CHO) (Rattus norvegicus, UniProt P20595); assay: Action at a recombinant guanylate cyclase reporter cell line (CHO reporter cell); format: cell-based
T1 construct: expressed in transfected cells; host or cells: CHO
T1 sequence (P20595 1-619): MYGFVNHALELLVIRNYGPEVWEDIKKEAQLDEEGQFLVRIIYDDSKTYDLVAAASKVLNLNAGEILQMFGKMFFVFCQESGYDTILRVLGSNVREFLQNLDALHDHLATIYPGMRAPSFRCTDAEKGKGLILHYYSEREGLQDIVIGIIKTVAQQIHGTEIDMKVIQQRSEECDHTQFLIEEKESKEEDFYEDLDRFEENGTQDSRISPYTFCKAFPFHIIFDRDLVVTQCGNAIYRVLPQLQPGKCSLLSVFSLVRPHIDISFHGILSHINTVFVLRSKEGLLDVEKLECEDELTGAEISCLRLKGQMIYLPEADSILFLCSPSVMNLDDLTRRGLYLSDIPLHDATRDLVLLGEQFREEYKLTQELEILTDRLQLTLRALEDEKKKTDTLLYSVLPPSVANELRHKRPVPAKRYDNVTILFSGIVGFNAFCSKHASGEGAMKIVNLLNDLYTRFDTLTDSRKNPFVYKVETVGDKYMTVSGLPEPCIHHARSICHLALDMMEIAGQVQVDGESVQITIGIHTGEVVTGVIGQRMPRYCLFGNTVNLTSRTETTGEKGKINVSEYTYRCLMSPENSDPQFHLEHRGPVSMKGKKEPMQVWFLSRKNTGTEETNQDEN
T1 sequence (P19686 1-690 partner): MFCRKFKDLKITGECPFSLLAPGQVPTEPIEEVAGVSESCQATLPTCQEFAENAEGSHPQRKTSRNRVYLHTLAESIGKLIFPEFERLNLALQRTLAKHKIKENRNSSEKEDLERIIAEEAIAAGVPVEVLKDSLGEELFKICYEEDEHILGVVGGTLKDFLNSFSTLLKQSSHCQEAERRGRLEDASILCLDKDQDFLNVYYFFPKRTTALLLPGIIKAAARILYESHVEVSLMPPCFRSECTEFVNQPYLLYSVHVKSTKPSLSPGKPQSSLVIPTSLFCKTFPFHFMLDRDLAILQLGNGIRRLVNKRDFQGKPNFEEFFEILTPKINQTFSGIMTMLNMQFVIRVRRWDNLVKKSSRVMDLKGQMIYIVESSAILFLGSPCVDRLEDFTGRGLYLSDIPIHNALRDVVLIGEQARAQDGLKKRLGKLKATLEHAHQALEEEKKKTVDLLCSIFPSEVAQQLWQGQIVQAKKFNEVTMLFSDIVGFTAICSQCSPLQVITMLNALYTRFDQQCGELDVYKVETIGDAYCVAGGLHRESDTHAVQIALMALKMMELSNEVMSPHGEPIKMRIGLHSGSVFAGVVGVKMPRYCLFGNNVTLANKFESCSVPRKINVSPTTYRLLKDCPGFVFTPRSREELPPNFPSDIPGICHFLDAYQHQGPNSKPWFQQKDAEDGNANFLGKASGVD
Method: B-1. Action at a Recombinant Guanylate Cyclase Reporter Cell Line
The cellular action of the compounds according to the invention is determined at a recombinant guanylate cyclase reporter cell line, as described in F. Wunder et al., Anal. Biochem. 339, 104-112 (2005).

[2] = target: T2, soluble guanylate cyclase (sGC) (Rattus norvegicus, UniProt P20595); assay: Stimulation of sGC enzyme activity (PPi luminescence detection); format: biochemical; conditions: for EC50: read-out: EC50 (concentration at 50% of maximum efficacy), activating action at the sGC enzyme in vitro
T2 construct: made in house
T2 sequence (P20595 1-619): T1 sequence (P20595 1-619)
T2 sequence (P19686 1-690 partner): T1 sequence (P19686 1-690 partner)
Method: B-2. Stimulation of sGC Enzyme Activity
Soluble guanylate cyclase (sGC) converts on stimulation GTP into cGMP and pyrophosphate (PPi). PPi is detected with the aid of the assay described below. The signal produced in the assay increases as the reaction progresses and serves as a measure of the sGC enzyme activity under the given stimulation.
To carry out the assay, 29 μl of enzyme solution [0-10 nM soluble guanylate cyclase (prepared according to Honicka et al., J. Mol. Med. 77, 14-23 (1999)) in 50 mM TEA, 2 mM MgCl2, 0.1% BSA (fraction V), 0.005% Brij®, pH 7.5] are initially introduced into a microplate, and 1 μl of the substance to be tested (as a serially diluted solution in DMSO) is added. The mixture is incubated at room temperature for 10 min. Then 20 μl of detection mix [1.2 nM Firefly Luciferase (Photinus pyralis luciferase, Promega), 29 μM dehydroluciferin (prepared according to Bitler & McElroy, Arch. Biochem. Biophys. 72, 358 (1957)), 122 μM luciferin (Promega), 153 μM ATP (Sigma) and 0.4 mM DTT (Sigma) in 50 mM TEA, 2 mM MgCl2, 0.1% BSA (fraction V), 0.005% Brij®, pH 7.5] are added. The enzyme reaction is started by adding 20 μl of substrate solution [1.25 mM guanosine 5′-triphosphate (Sigma) in 50 mM TEA, 2 mM MgCl2, 0.1% BSA (fraction V), 0.005% Brij®, pH 7.5] and measured continuously in a luminometer. The extent of the stimulation by the substance to be tested can be determined relative to the signal of the unstimulated reaction.
The activation of heme-free guanylate cyclase is examined by addition of 25 μM of 1H-1,2,4-oxadiazolo[4,3-a]quinoxalin-1-one (ODQ) to the enzyme solution and subsequent incubation for 30 minutes and compared to the stimulation of the native enzyme.

[3] = tested on: rabbit saphenous artery rings; assay: Vasorelaxant effect in vitro on phenylephrine-contracted saphenous artery rings; design: species or system Rabbits; conditions: Oryctolagus cuniculus, contraction induced by phenylephrine
Method: B-3. Vasorelaxant Effect In Vitro:
Rabbits are anesthetized and sacrificed by intravenous injection of thiopental sodium (about 50 mg/kg) and exsanguinated. The saphenous artery is removed and divided into rings 3 mm wide. The rings are mounted singly on in each case a pair of triangular hooks open at the end and made of 0.3 mm-thick special wire (Remanium®). Each ring is placed under an initial tension in 5 ml organ baths with Krebs-Henseleit solution which is at 37° C., is gassed with carbogen and has the following composition: NaCl 119 mM; KCl 4.8 mM; CaCl2×2 H2O 1 mM; MgSO4×7 H2O 1.4 mM; KH2PO4 1.2 mM; NaHCO3 25 mM; glucose 10 mM; bovine serum albumin 0.001%. The force of contraction is detected with Statham UC2 cells, amplified and digitized via A/D converters (DAS-1802 HC, Keithley Instruments, Munich) and recorded in parallel on chart recorders. Contractions are induced by addition of phenylephrine.
After several (generally 4) control cycles, the substance to be investigated is added in each further run in increasing dosage, and the level of the contraction achieved under the influence of the test substance is compared with the level of the contraction reached in the last preceding run. The concentration necessary to reduce the contraction reached in the preceding control by 50% is calculated from this (IC50). The standard application volume is 5 μl. The proportion of DMSO in the bath solution corresponds to 0.1%.

Compound	MEC (minimum effective concentration), sGC-activating activity in the CHO reporter cell in vitro [1]	MEC (minimum effective concentration), activating action at the sGC enzyme in vitro [2]	EC50 [2]	IC50 [3]
O=C(O)CCCCN(Cc1ccc(C(=O)O)cc1)C1CCc2cccc(OCc3ccc(CCc4ccccc4)cc3)c2C1 (single isomer, unassigned) [Example 5]	0.3 nM	0.13 nM	1.4 nM	9140 nM
O=C(O)CCCCN(Cc1ccc(C(=O)O)cc1)C1CCc2cccc(OCc3ccc(CCc4ccccc4)cc3)c2C1 (centres unmarked) [Example 4]	3.0 nM	0.7 nM	7.5 nM	
CC(C)(C)c1nc(COc2cccc3c2CC(N(CCCCC(=O)O)Cc2ccc(C(=O)O)cc2)CC3)no1 (centres unmarked) [Example 12]		205 nM		
O=C(O)CCCCN(Cc1ccc(C(=O)O)cc1)C1CCc2cccc(OCc3cccc(F)c3)c2C1 (centres unmarked) [Example 11]	300 nM	200 nM		
CC(C)CCCCOc1cccc2c1CC(N(CCCCC(=O)O)Cc1ccc(C(=O)O)cc1)CC2 (centres unmarked) [Example 10]	30 nM	48 nM	620 nM	
O=C(O)CCCCN(Cc1ccc(C(=O)O)cc1)C1CCc2cccc(OCCCN3CCOCC3=O)c2C1 (centres unmarked) [Example 9]		700 nM		
O=C(O)CCCCN(Cc1ccc(C(=O)O)cc1)C1CCc2cccc(OCc3ccc(CCc4ccccc4)cc3)c2C1 (centres unmarked) [Example 6]				4380 nM
O=C(O)CCCCN(Cc1ccc(C(=O)O)cc1)C1CCc2cccc(OCCCN3CCCC3=O)c2C1 (centres unmarked) [Example 7]		830 nM		
CC(C)(C)c1ccc(COc2cccc3c2CC(N(CCCCC(=O)O)Cc2ccc(C(=O)O)cc2)CC3)cc1 (racemic) [Example 1, rac-4-{[{8-[(4-tert-Butylbenzyl)oxy]-1,2,3,4-tetrahydronaphthalen-2-yl}(4-carboxybutyl)amino]-methyl}benzoic acid]	0.3 nM	0.12 nM	8.5 nM	113 nM
